# Measured values from US8076487B2, “Pyridone derivative and herbicide” (Kumiai Chemical Industry Co., Ltd., priority 2006, dated 2011).
# Tests used:
# Type in all cases: in vivo
# [1] = system: Japanese bulrush (Scirpus juncoides Roxb.); experiment: Test Example 1: herbicidal effect by soil application to paddy field; settings: paddy field soil application; active ingredient 1,000 g per 1 hectare; wettable powder added dropwise to water surface the day after sowing; examined on the 21st day after application
# How it was run: (§1)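 Plants were sown in flooded (3 cm) paddy soil and evaluated for herbicidal effect 21 days after soil application in a greenhouse.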
# [2] = system: early watergrass (Echinochloa oryzicola Vasing); experiment: as above; settings: paddy field soil application; active ingredient 1,000 g per 1 hectare; wettable powder added dropwise to water surface the day after sowing; examined on the 21st day after application
# How it was run: as §1
# [3] = system: heartshape false pickerelweed (Monochoria vaginalis (Burm.f.) C.Presl); experiment: as above; settings: paddy field soil application; active ingredient 1,000 g per 1 hectare; wettable powder added dropwise to water surface the day after sowing; examined on the 21st day after application
# How it was run: as §1
# [4] = system: barnyardgrass (Echinochloa crus-galli (L.) P. Beauv. var. crus-galli); experiment: Test Example 2: herbicidal effect by soil application to upland field; settings: soil surface spray, upland field soil, 1,000 g active ingredient per hectare, 21st day after application
# How it was run: (§2)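 Using a small sprayer, we treat the soil surface of pots just after sowing and covering seeds. The aqueous wettable powder supplies 1,000 g a.i./ha in 1,000 L water/ha; after greenhouse growth, injury is scored on day 21 using a standard rating.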
# [5] = system: green foxtail (Setaria viridis (L.) P. Beauv.); experiment: as above; settings: soil surface spray, upland field soil, 1,000 g active ingredient per hectare, 21st day after application
# How it was run: as §2
# [6] = system: slender amaranth (Amaranthus viridis L.); experiment: as above; settings: soil surface spray, upland field soil, 1,000 g active ingredient per hectare, 21st day after application
# How it was run: as §2
# [7] = system: velvetleaf (Abutilon theophrasti medicus); experiment: as above; settings: soil surface spray, upland field soil, 1,000 g active ingredient per hectare, 21st day after application
# How it was run: as §2
# [8] = system: barnyardgrass (Echinochloa crus-galli (L.) P. Beauv. var. crus-galli); experiment: Test Example 3: herbicidal effect by application to upland field (foliage treatment); settings: foliage treatment, 1,000 g active ingredient per 1 hectare, 14th day after application, greenhouse
# How it was run: (§3)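 Post-emergence spray at 1,000 g AI/ha of wettable powder in water (1,000 L/ha), onto seedlings grown 2 weeks in greenhouse field-soil pots. Graded day 14.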
# [9] = system: green foxtail (Setaria viridis (L.) P. Beauv.); experiment: as above; settings: foliage treatment, 1,000 g active ingredient per 1 hectare, 14th day after application, greenhouse
# How it was run: as §3
# [10] = system: slender amaranth (Amaranthus viridis L.); experiment: as above; settings: foliage treatment, 1,000 g active ingredient per 1 hectare, 14th day after application, greenhouse
# How it was run: as §3
# [11] = system: velvetleaf (Abutilon theophrasti medicus); experiment: as above; settings: foliage treatment, 1,000 g active ingredient per 1 hectare, 14th day after application, greenhouse
# How it was run: as §3
SMILES,"herbicidal effect, Scirpus juncoides Roxb. [1]","herbicidal effect, Echinochloa oryzicola Vasing [2]","herbicidal effect, Monochoria vaginalis (Burm. f.) C. Presl [3]","herbicidal effect (index), Barnyardgrass [4]","herbicidal effect (index), Green Foxtail [5]","herbicidal effect (index), Slender Amaranth [6]","herbicidal effect (index), Velvetleaf [7]","herbicidal effect, Barnyardgrass [8]","herbicidal effect, Green Foxtail [9]","herbicidal effect, Slender Amaranth [10]","herbicidal effect, Velvetleaf [11]"
CC1=NOC(Cn2c(C(F)(F)F)ccc(C(=O)C3=C(O)CCCC3=O)c2=O)C1 (stereo not drawn) [I-126],5 (90% or more of herbicidal effect and crop phytotoxicity),5 (90% or more of herbicidal effect and crop phytotoxicity),5 (90% or more of herbicidal effect and crop phytotoxicity),5 (90% or more of herbicidal effect and crop phytotoxicity),5 (90% or more of herbicidal effect and crop phytotoxicity),5 (90% or more of herbicidal effect and crop phytotoxicity),5 (90% or more of herbicidal effect and crop phytotoxicity),5 (90% or more of herbicidal effect and crop phytotoxicity),5 (90% or more of herbicidal effect and crop phytotoxicity),5 (90% or more of herbicidal effect and crop phytotoxicity),5 (90% or more of herbicidal effect and crop phytotoxicity)
Cc1cc(Cn2c(C(F)(F)F)ccc(C(=O)C3=C(O)CCCC3=O)c2=O)on1 [I-128],5 (90% or more of herbicidal effect and crop phytotoxicity),5 (90% or more of herbicidal effect and crop phytotoxicity),5 (90% or more of herbicidal effect and crop phytotoxicity),5 (90% or more of herbicidal effect and crop phytotoxicity),4 (70 to less than 90% of herbicidal effect and crop phytotoxicity),5 (90% or more of herbicidal effect and crop phytotoxicity),5 (90% or more of herbicidal effect and crop phytotoxicity),5 (90% or more of herbicidal effect and crop phytotoxicity),4 (70 to less than 90% of herbicidal effect and crop phytotoxicity),5 (90% or more of herbicidal effect and crop phytotoxicity),5 (90% or more of herbicidal effect and crop phytotoxicity)
O=C1CCCC(O)=C1C(=O)c1ccc(C(F)(F)F)n(CCc2ccccc2)c1=O [I-129],5 (90% or more of herbicidal effect and crop phytotoxicity),5 (90% or more of herbicidal effect and crop phytotoxicity),4 (70 to less than 90% of herbicidal effect and crop phytotoxicity),5 (90% or more of herbicidal effect and crop phytotoxicity),4 (70 to less than 90% of herbicidal effect and crop phytotoxicity),5 (90% or more of herbicidal effect and crop phytotoxicity),5 (90% or more of herbicidal effect and crop phytotoxicity),5 (90% or more of herbicidal effect and crop phytotoxicity),5 (90% or more of herbicidal effect and crop phytotoxicity),5 (90% or more of herbicidal effect and crop phytotoxicity),5 (90% or more of herbicidal effect and crop phytotoxicity)
CON=CCn1c(C(F)(F)F)ccc(C(=O)C2=C(O)CCCC2=O)c1=O [I-133],5 (90% or more of herbicidal effect and crop phytotoxicity),5 (90% or more of herbicidal effect and crop phytotoxicity),5 (90% or more of herbicidal effect and crop phytotoxicity),5 (90% or more of herbicidal effect and crop phytotoxicity),4 (70 to less than 90% of herbicidal effect and crop phytotoxicity),5 (90% or more of herbicidal effect and crop phytotoxicity),5 (90% or more of herbicidal effect and crop phytotoxicity),5 (90% or more of herbicidal effect and crop phytotoxicity),4 (70 to less than 90% of herbicidal effect and crop phytotoxicity),5 (90% or more of herbicidal effect and crop phytotoxicity),5 (90% or more of herbicidal effect and crop phytotoxicity)
COC(Cn1c(C(F)(F)F)ccc(C(=O)C2=C(O)CCCC2=O)c1=O)OC [I-137],5 (90% or more of herbicidal effect and crop phytotoxicity),5 (90% or more of herbicidal effect and crop phytotoxicity),5 (90% or more of herbicidal effect and crop phytotoxicity),5 (90% or more of herbicidal effect and crop phytotoxicity),5 (90% or more of herbicidal effect and crop phytotoxicity),5 (90% or more of herbicidal effect and crop phytotoxicity),5 (90% or more of herbicidal effect and crop phytotoxicity),5 (90% or more of herbicidal effect and crop phytotoxicity),4 (70 to less than 90% of herbicidal effect and crop phytotoxicity),5 (90% or more of herbicidal effect and crop phytotoxicity),5 (90% or more of herbicidal effect and crop phytotoxicity)
Cc1cc(-n2c(C(F)(F)F)ccc(C(=O)C3=C(O)CCCC3=O)c2=O)no1 [I-142],5 (90% or more of herbicidal effect and crop phytotoxicity),5 (90% or more of herbicidal effect and crop phytotoxicity),5 (90% or more of herbicidal effect and crop phytotoxicity),5 (90% or more of herbicidal effect and crop phytotoxicity),5 (90% or more of herbicidal effect and crop phytotoxicity),5 (90% or more of herbicidal effect and crop phytotoxicity),5 (90% or more of herbicidal effect and crop phytotoxicity),5 (90% or more of herbicidal effect and crop phytotoxicity),5 (90% or more of herbicidal effect and crop phytotoxicity),5 (90% or more of herbicidal effect and crop phytotoxicity),5 (90% or more of herbicidal effect and crop phytotoxicity)
